Active and inactive are the calls of the source. No cut-off for these calls is given here.
How the values were obtained:
Caenorhabditis elegans [1] = experiment: Growth inhibition of Caenorhabditis elegans N2 assessed as body size at 42 mM incubated for 72 hrs by microscopic method relative to control; assay type: functional
Caenorhabditis elegans [2] = experiment: Growth inhibition of Caenorhabditis elegans N2 assessed as reduction in body size incubated for 72 hrs by microscopic method; assay type: functional; settings: for GI50: N2, 72 h
Caenorhabditis elegans [3] = experiment: Ratio of GI50 for D-Alu to GI50 for test compound for growth inhibition of Caenorhabditis elegans N2 assessed as reduction in body size incubated for 72 hrs by microscopic method; assay type: functional
Caenorhabditis elegans [4] = experiment: Growth inhibition of Caenorhabditis elegans N2 assessed as reduction in motility at 42 mM incubated for 72 hrs by microscopic method; assay type: functional, organism-based
[5] = Toxicity in Caenorhabditis elegans N2 assessed as mortality at 42 mM incubated for 72 hrs by microscopic method; settings: 42000 µM
Caenorhabditis elegans [6] = experiment: Growth inhibition of Caenorhabditis elegans N2 assessed as reduction in body size at 9.5 mM incubated for 72 hrs in presence of D-ribose by microscopic method; assay type: functional, organism-based
Caenorhabditis elegans [7] = experiment: Growth inhibition of Caenorhabditis elegans N2 assessed as reduction in body size at 9.5 mM incubated for 72 hrs in presence of up to 67 mM D-glucose by microscopic method; assay type: functional, organism-based
Caenorhabditis elegans [8] = experiment: Growth inhibition of Caenorhabditis elegans N2 assessed as reduction in body size at 9.5 mM incubated for 72 hrs in presence of D-fructose by microscopic method; assay type: functional, organism-based
Caenorhabditis elegans [9] = experiment: Growth inhibition of Caenorhabditis elegans N2 assessed as effect on body size at 42 mM incubated for 72 hrs by microscopic method; assay type: functional, organism-based
Caenorhabditis elegans [10] = experiment: Growth inhibition of Caenorhabditis elegans N2 assessed as effect on body shape at 42 mM incubated for 72 hrs by microscopic method; assay type: functional, organism-based

## C[C@@H](O)[C@@H](O)[C@@H](O)C(=O)CO
Caenorhabditis elegans [1]
  growth inhibition (GI): inactive

## CC(=O)[C@@H](O)[C@@H](O)[C@H](O)CO
Caenorhabditis elegans [1]
  growth inhibition (GI): inactive

## CC(=O)[C@@H](O)[C@H](O)[C@@H](O)CO
Caenorhabditis elegans [1]
  growth inhibition (GI): inactive

## CC(=O)[C@@H](O)[C@H](O)[C@H](O)CO
Caenorhabditis elegans [1]
  growth inhibition (GI): inactive

## CC(=O)[C@H](O)[C@@H](O)[C@H](O)CO
Caenorhabditis elegans [1]
  growth inhibition (GI): inactive

## O=C(CO)[C@H](O)[C@H](O)[C@H](O)CO
Caenorhabditis elegans [2]
  GI50: 52.7 mM

## CC(=O)[C@H](O)[C@@H](O)[C@@H](O)CO
Caenorhabditis elegans [1]
  growth inhibition (GI): inactive

## CC(=O)[C@H](O)[C@H](O)[C@@H](O)CO
Caenorhabditis elegans [1]
  growth inhibition (GI): inactive

## CC(=O)[C@@H](O)[C@@H](O)[C@@H](O)CO
Caenorhabditis elegans [1]
  growth inhibition (GI): inactive

## O=C(CO)[C@H](O)[C@H](O)CCO
Caenorhabditis elegans [1]
  growth inhibition (GI): inactive

## CC(=O)[C@H](O)[C@H](O)[C@H](O)CO
Caenorhabditis elegans [3]
  RatioGI50: 10
Caenorhabditis elegans [2]
  growth inhibition (GI): Dose-dependent effect
  GI50: 5.4 mM
Caenorhabditis elegans [1]
  Activity: 5.7%
Caenorhabditis elegans [4]
  growth inhibition (GI): Active
[5]
  Activity: Non-Toxic
Caenorhabditis elegans [6]
  growth inhibition (GI): inactive
Caenorhabditis elegans [7]
  growth inhibition (GI): Active
Caenorhabditis elegans [8]
  growth inhibition (GI): inactive
Caenorhabditis elegans [9]
  growth inhibition (GI): Active
Caenorhabditis elegans [10]
  growth inhibition (GI): Active

— ChEMBL document CHEMBL4346748, “Growth inhibition by 1-deoxy-d-allulose, a novel bioactive deoxy sugar, screened using Caenorhabditis elegans assay” (Bioorg Med Chem Lett, 2019)
